# Reference: patent US20250296959A1, “B7-H3 TARGETING PEPTIDES AND CONSTRUCTS THEREOF” (Mariana Oncology Inc., priority 2024, published 2025)
# Like-named read-outs stand apart in the source and are kept apart here. Starred links: 1 amine or outer side, 2 acyl side, 3 side chain; linkers in the order of their positions; H or OH if unused. Positions of bridges follow the written chain, without caps; N, C: chain ends. Non-standard residues stand in square brackets, D forms with d. Residues, ends and D or L forms follow the SMILES beside them. Groups on a side chain read outwards from the residue. *: point of attachment. Ala(piperidin-4-yl) = O=C([C@H](CC1CCN([*:3])CC1)N[*:1])[*:2]; Phe(3-CH2NH2) = O=C([C@H](Cc1cccc(CN[*:3])c1)N[*:1])[*:2]; DOTA = O=C(O)CN1CCN(CC(=O)O)CCN(CC(=O)*)CCN(CC(=O)O)CC1; Trp(5-F) = N[C@@H](Cc1c[nH]c2ccc(F)cc12)C(=O)O; X1 = C[C@@H](c1ccccc1)[C@H](N[*:1])C(=O)[*:2]; Ala(4-THP) = N[C@@H](CC1CCOCC1)C(=O)O; X3 = O=C([C@H](CCC1CCC1)N[*:1])[*:2]; Val(3-OH) = CC(C)(O)[C@H](N)C(=O)O; Chg = N[C@H](C(=O)O)C1CCCCC1; PEG4 = NCCOCCOCCOCCOCCC(=O)O; Tle = CC(C)(C)[C@H](N)C(=O)O; hLeu = CC(C)CC[C@H](N)C(=O)O
# Experiments:
# [1] = tested on: Calu-6 cell line; assay: Net internalization of [177Lu]Lu-labeled peptide in Calu-6 cells; assay type: cell-based, Human; settings: 1 hour, 37° C., glycine pH 2.5 acid wash
# Method in brief: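 Calu-6 cells, human non-engineered lung cancer expressing B7-H3, resuspended in 1% PBSA at 5 million cells/mL and incubated with the 177Lu-labeled conjugate (labeled at 80 °C, pH ~5, RP-HPLC checked). Gamma counting of the bound fraction, then of the pellet after two glycine pH 2.5 acid strips and NaOH lysis, gives internalized activity.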
# [2] = tested on: Calu-6 cell line; assay: Cell associated (bound) fraction of [177Lu]Lu-labeled peptide in Calu-6 cells; assay type: cell-based, Human; settings: 1 hour, 37° C.
# Method in brief: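 Detached B7-H3-expressing human lung cancer cells at 5 million/mL were exposed for 1 hour at 37 °C to 0.8 μCi of the 177Lu-labelled peptide, which was formulated in 1% PBSA after labelling at 80 °C, pH ~5. Supernatant and two cold washes counted as unbound, and resuspended cells gamma-counted as the cell-associated fraction.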
# [3] = molecular target: T1, human 4lg B7-H3 (Homo sapiens, UniProt Q5ZPR3); assay: Affinity determination by surface plasmon resonance (SPR) to 4Ig B7-H3; settings: 4Ig B7-H3
# T1 sequence (Q5ZPR3 29-534): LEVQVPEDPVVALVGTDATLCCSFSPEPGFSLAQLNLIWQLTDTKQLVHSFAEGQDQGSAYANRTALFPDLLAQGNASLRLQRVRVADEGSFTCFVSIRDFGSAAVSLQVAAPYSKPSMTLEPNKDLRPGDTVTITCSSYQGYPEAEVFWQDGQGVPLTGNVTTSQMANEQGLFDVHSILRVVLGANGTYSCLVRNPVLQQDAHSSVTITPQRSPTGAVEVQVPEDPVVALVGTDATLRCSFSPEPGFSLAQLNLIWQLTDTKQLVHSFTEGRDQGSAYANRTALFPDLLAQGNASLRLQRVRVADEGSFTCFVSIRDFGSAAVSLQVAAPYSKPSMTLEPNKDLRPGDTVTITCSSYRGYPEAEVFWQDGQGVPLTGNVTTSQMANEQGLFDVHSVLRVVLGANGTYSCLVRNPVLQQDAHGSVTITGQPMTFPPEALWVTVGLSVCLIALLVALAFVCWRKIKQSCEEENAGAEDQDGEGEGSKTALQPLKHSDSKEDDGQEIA
# [4] = read-out: SPR KD—37° C., 37° C. flow cell temperature
Structure (SMILES),% net internalization [1],% cell associated fraction [2],"Kd ([3]; read-out: SPR KD—25° C., 25° C. flow cell temperature)","Kd ([3]; SPR KD—25° C., 25° C. flow cell temperature)","Kd [3, 4]"
"CC(=O)N[C@@H](CCC(C)C)C(=O)N[C@@H](Cc1ccc(O)cc1)C(=O)N[C@H]1CSSC[C@@H](C(=O)N[C@@H](Cc2c[nH]c3ccc(F)cc23)C(=O)N[C@@H](Cc2ccccc2)C(=O)N[C@H](C(=O)N[C@H](CCCCNC(=O)CN2CCN(CC(=O)O)CCN(CC(=O)O)CCN(CC(=O)O)CC2)C(N)=O)[C@@H](C)O)NC(=O)[C@H](Cc2ccc(O)cc2)NC(=O)[C@H](C2CCCCC2)NC(=O)[C@H](CC(=O)O)NC(=O)[C@H](Cc2ccc(O)cc2)NC(=O)[C@H](CCCCN)NC(=O)CNC(=O)[C@H](C(C)C)NC1=O [compound 215, Ac-hLeu-Y-C-V-G-K-Y-D-ChG-Y-C-5FW-F-Thr-dLys(DOTA)-CONH2] (Ac-[hLeu]YCVGKYD[Chg]YC[Trp(5-F)]FT[dK](DOTA)-NH2; disulfide 3-11)",A (%≤25),C (%>50),< 1 nM,,
"CC(=O)N[C@@H](CCC(C)C)C(=O)N[C@@H](Cc1ccc(O)cc1)C(=O)N[C@H]1CSSC[C@@H](C(=O)N[C@@H](Cc2c[nH]c3ccc(F)cc23)C(=O)N[C@@H](Cc2ccccc2)C(=O)N[C@H](C(N)=O)[C@@H](C)O)NC(=O)[C@H](Cc2ccc(O)cc2)NC(=O)[C@H](C(C)C)NC(=O)[C@H](CC(=O)O)NC(=O)[C@H](Cc2cccc(CNC(=O)CN3CCN(CC(=O)O)CCN(CC(=O)O)CCN(CC(=O)O)CC3)c2)NC(=O)[C@H](CCCCN)NC(=O)CNC(=O)[C@H](C(C)C)NC1=O [compound 182, Ac-hLeu-Y-C-V-G-K-MAF(DOTA)-D-V-Y-C-5FW-F-Thr-CONH2] (Ac-[hLeu]YCVGK[Phe(3-CH2NH2)](DOTA)DVYC[Trp(5-F)]FT-NH2; disulfide 3-11)",C (%>50),C (%>50),,< 1 nM,
"CC(=O)N[C@@H](CCC(C)C)C(=O)N[C@@H](Cc1ccc(O)cc1)C(=O)N[C@H]1CSSC[C@@H](C(=O)N[C@@H](Cc2c[nH]c3ccc(F)cc23)C(=O)N[C@H](C(=O)N[C@H](C(=O)N[C@H](CCC(=O)O)C(N)=O)C(C)(C)O)[C@@H](C)c2ccccc2)NC(=O)[C@H](Cc2ccc(O)cc2)NC(=O)[C@H](C(C)C)NC(=O)[C@H](CC(=O)O)NC(=O)[C@H](CC2CCN(C(=O)CCOCCOCCOCCOCCNC(=O)CN3CCN(CC(=O)O)CCN(CC(=O)O)CCN(CC(=O)O)CC3)CC2)NC(=O)[C@H](CC2CCNCC2)NC(=O)CNC(=O)[C@H](C(C)(C)C)NC1=O [compound 495, Ac-hLeu-Y-C-Tbg-G-PipAla-Pip(PEG4-DOTA)Ala-D-V-Y-C-5FW-[(2S, 3S)beta-Me-Phe]-hydroxyVal-dGlu-CONH2] (Ac-[hLeu]YC[Tle]G[Ala(piperidin-4-yl)][Ala(piperidin-4-yl)]([PEG4-DOTA])DVYC[Trp(5-F)][X1][Val(3-OH)][dE]-NH2; disulfide 3-11)",A (%≤25),C (%>50),,,< 1 nM
"CC(=O)N[C@@H](CCC1CCC1)C(=O)N[C@@H](Cc1ccc(O)cc1)C(=O)N[C@H]1CSSC[C@@H](C(=O)N[C@@H](Cc2c[nH]c3ccc(F)cc23)C(=O)N[C@@H](Cc2ccccc2)C(=O)N[C@H](C(=O)N[C@H](CCCCNC(=O)CN2CCN(CC(=O)O)CCN(CC(=O)O)CCN(CC(=O)O)CC2)C(=O)O)C(C)(C)O)NC(=O)[C@H](Cc2ccc(O)cc2)NC(=O)[C@H](C(C)C)NC(=O)[C@H](CC(=O)O)NC(=O)[C@H](CC2CCOCC2)NC(=O)[C@H](CCCCN)NC(=O)CNC(=O)[C@H](C(C)(C)C)NC1=O [compound 398, Ac-hCba-Y-C-Tbg-G-K-ThpA-D-V-Y-C-5FW-F-hydroxyVal-dLys(DOTA)-COOH] (Ac-[X3]YC[Tle]GK[Ala(4-THP)]DVYC[Trp(5-F)]F[Val(3-OH)][dK](DOTA)-OH; disulfide 3-11)",A (%≤25),B (25<%≤50),,,< 1 nM
